According to PubChem BioAssay AID330 (DTP/NCI, 2004):
Several values for one entry are separate records, joined by “and”; a condition that tells them apart may be missing. Equal entries are not always repeated. Inconclusive results and toxic doses are left out. The calls were made as follows: active = survival T/C of 150% or more; inactive = T/C below 125% in these data.

System: P388 leukemia ip, CD2F1 mice, survival T/C
Assay: NCI In Vivo Anticancer Drug Screen. Data for tumor model P388 Leukemia (intraperitoneal) in CD2F1 (CDF1) mice
Settings: endpoint: median survival time, higher = longer survival
In short: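 Mice carrying the transplanted tumor received test compound or vehicle. Survival was recorded in each group, and the value is the treated-group measurement divided by that of the vehicle-treated control group.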

[1] = dose: 25.0 mg/kg/injection, schedule: Q01DX009 (ip), vehicle: saline with Tween-80
[2] = dose: 50.0 mg/kg/injection, schedule: Q01DX009 (ip), vehicle: saline with Tween-80
[3] = dose: 100.0 mg/kg/injection, schedule: Q01DX009 (ip), vehicle: saline with Tween-80
[4] = dose: 25.0 mg/kg/injection, schedule: Q01DX005 (ip), vehicle: saline
[5] = dose: 50.0 mg/kg/injection, schedule: Q01DX005 (ip), vehicle: saline
[6] = dose: 100.0 mg/kg/injection, schedule: Q01DX005 (ip), vehicle: saline
[7] = dose: 50.0 mg/kg/injection, schedule: Q01DX009 (ip), vehicle: suspension in saline
[8] = dose: 100.0 mg/kg/injection, schedule: Q01DX009 (ip), vehicle: suspension in saline
[9] = dose: 100.0 mg/kg/injection, schedule: Q04DX003 (ip), vehicle: saline with Tween-80
[10] = dose: 100.0 mg/kg/injection, schedule: Q01DX001 (ip), vehicle: saline

Measured: T/C

Cc1c2cc[n+](C)c(C)c2cc2c1[nH]c1ccccc12
inactive: dose: 1.56 mg/kg/injection, schedule: Q04DX002 (ip), vehicle: water 100 % of control | dose: 3.12 mg/kg/injection, schedule: Q04DX002 (ip), vehicle: water 115 % of control | dose: 6.25 mg/kg/injection, schedule: Q04DX002 (ip), vehicle: water 117 % of control | dose: 10.0 mg/kg/injection, schedule: Q04DX002 (ip), vehicle: water 115 % of control | dose: 12.5 mg/kg/injection, schedule: Q04DX002 (ip), vehicle: water 118 % of control | dose: 20.0 mg/kg/injection, schedule: Q04DX002 (ip), vehicle: water 115 % of control | dose: 25.0 mg/kg/injection, schedule: Q04DX002 (ip), vehicle: water 115 % of control | dose: 40.0 mg/kg/injection, schedule: Q04DX002 (ip), vehicle: water 115 % of control | dose: 50.0 mg/kg/injection, schedule: Q04DX002 (ip), vehicle: water 106 % of control

CCN1C(=O)C(N2CCCCC2)S/C1=C\C(=O)O (centres undefined)
inactive: dose: 50.0 mg/kg/injection, schedule: Q01DX009 (ip), vehicle: Klucel (hydroxypropylcellulose) (HPC) 97 % of control | dose: 100.0 mg/kg/injection, schedule: Q01DX009 (ip), vehicle: Klucel (hydroxypropylcellulose) (HPC) 110 % of control | dose: 200.0 mg/kg/injection, schedule: Q01DX009 (ip), vehicle: Klucel (hydroxypropylcellulose) (HPC) 107 % of control

COC(=O)C(Cl)c1ccc2c(c1)OCO2 (centres undefined)
inactive: [1] 100 % of control | [2] 90 % of control | [3] 95 % of control

C=C1C2(CN)CCC(C2)C1(C)C (centres undefined)
inactive: dose: 6.25 mg/kg/injection, schedule: Q01DX009 (ip), vehicle: saline with Tween-80 101 % of control | dose: 12.5 mg/kg/injection, schedule: Q01DX001 (ip), vehicle: saline with Tween-80 96 % of control | dose: 12.5 mg/kg/injection, schedule: Q01DX009 (ip), vehicle: saline with Tween-80 98 % of control | dose: 25.0 mg/kg/injection, schedule: Q01DX001 (ip), vehicle: saline with Tween-80 101 % of control | [1] 98 % of control | dose: 50.0 mg/kg/injection, schedule: Q01DX001 (ip), vehicle: saline with Tween-80 99 % of control

Cc1c(C)c(C)c(C(=O)c2ccccc2C(=O)NCCSC(C)(C)C)c(C)c1C
inactive: dose: 30.0 mg/kg/injection, schedule: Q01DX005 (ip), vehicle: Klucel (hydroxypropylcellulose) (HPC) 98 % of control | dose: 60.0 mg/kg/injection, schedule: Q01DX005 (ip), vehicle: Klucel (hydroxypropylcellulose) (HPC) 93 % of control and 96 % of control | dose: 120.0 mg/kg/injection, schedule: Q01DX005 (ip), vehicle: Klucel (hydroxypropylcellulose) (HPC) 92 % of control | dose: 240.0 mg/kg/injection, schedule: Q01DX005 (ip), vehicle: Klucel (hydroxypropylcellulose) (HPC) 87 % of control

N#CC1(OC2OC(CO)C(O)C(O)C2O)C=CC(O)C1 (centres undefined)
inactive: [4] 91 % of control | [5] 94 % of control | [6] 106 % of control

C[N+](C)(C)NP(=O)(N[N+](C)(C)C)Oc1ccccc1
inactive: dose: 60.0 mg/kg/injection, schedule: Q01DX005 (ip), vehicle: saline 100 % of control and 110 % of control and 93 % of control | dose: 120.0 mg/kg/injection, schedule: Q01DX005 (ip), vehicle: saline 103 % of control and 110 % of control (2×) | dose: 240.0 mg/kg/injection, schedule: Q01DX005 (ip), vehicle: saline 100 % of control and 104 % of control | dose: 480.0 mg/kg/injection, schedule: Q01DX005 (ip), vehicle: saline 104 % of control and 95 % of control

CN(C)C(=O)Oc1ccc(Br)cc1
inactive: [2] 101 % of control | [3] 94 % of control | dose: 200.0 mg/kg/injection, schedule: Q01DX009 (ip), vehicle: saline with Tween-80 103 % of control

NN1C(=O)c2ccc3c4c(ccc(c24)C1=O)CC3
inactive: [7] 91 % of control | [8] 102 % of control | dose: 200.0 mg/kg/injection, schedule: Q01DX009 (ip), vehicle: suspension in saline 88 % of control | dose: 400.0 mg/kg/injection, schedule: Q01DX009 (ip), vehicle: suspension in saline 99 % of control

N=C(N)N=Nc1cc(O)c(NN=C(N)N)cc1O
inactive: dose: 1.56 mg/kg/injection, schedule: Q01DX005 (ip), vehicle: saline with Tween-80 102 % of control | dose: 3.13 mg/kg/injection, schedule: Q01DX005 (ip), vehicle: saline with Tween-80 99 % of control | dose: 6.25 mg/kg/injection, schedule: Q01DX005 (ip), vehicle: saline with Tween-80 102 % of control

S=P(c1ccccc1)(N1CC1)N1CC1
inactive: [1] 109 % of control | dose: 25.0 mg/kg/injection, schedule: Q04DX003 (ip), vehicle: saline with Tween-80 104 % of control | [2] 104 % of control | dose: 50.0 mg/kg/injection, schedule: Q04DX003 (ip), vehicle: saline with Tween-80 104 % of control | [3] 86 % of control | [9] 100 % of control and 113 % of control

CC(C)(C)N1CS[C@@H]2CCCC[C@H]21
inactive: [4] 104 % of control | [5] 92 % of control | [6] 111 % of control

CCOP(=O)(O)SP(=O)(O)OCC.CCOP(=O)(O)SP(=O)(O)OCC.[Co]
inactive: dose: 50.0 mg/kg/injection, schedule: Q01DX001 (ip), vehicle: saline 105 % of control | [10] 104 % of control and 111 % of control

C1CCC2OCN3CCCCC3CC2C1 (centres undefined)
inactive: dose: 12.5 mg/kg/injection, schedule: Q01DX005 (ip), vehicle: saline 107 % of control and 98 % of control | [4] 99 % of control and 98 % of control | [5] 100 % of control and 111 % of control and 113 % of control | [6] 114 % of control and 118 % of control and 121 % of control

Cc1cn(C2CC(O)C(CNC(=O)CCl)O2)c(=O)[nH]c1=O (centres undefined)
inactive: [5] 105 % of control | [6] 98 % of control | dose: 200.0 mg/kg/injection, schedule: Q01DX005 (ip), vehicle: saline 109 % of control

O=S(=O)(O)C1=CC(=N\Cl)/C=CC/1=N/Cl
inactive: dose: 25.0 mg/kg/injection, schedule: Q01DX005 (ip), vehicle: saline + Tween-80 + alcohol 100 % of control and 113 % of control | dose: 50.0 mg/kg/injection, schedule: Q01DX005 (ip), vehicle: saline + Tween-80 + alcohol 107 % of control and 113 % of control and 119 % of control | dose: 100.0 mg/kg/injection, schedule: Q01DX005 (ip), vehicle: saline + Tween-80 + alcohol 111 % of control and 117 % of control | dose: 200.0 mg/kg/injection, schedule: Q01DX005 (ip), vehicle: saline + Tween-80 + alcohol 116 % of control and 120 % of control

COC(=O)C1CCC[P+]1(C)C (centres undefined)
inactive: [10] 106 % of control | dose: 400.0 mg/kg/injection, schedule: Q01DX001 (ip), vehicle: saline 101 % of control

CC1(C(=O)O)CCCC2(C)C(CC(=O)O)C(=O)CCC12 (centres undefined)
inactive: dose: 5.0 mg/kg/injection, schedule: Q01DX009 (ip), vehicle: saline with Tween-80 101 % of control | dose: 10.0 mg/kg/injection, schedule: Q01DX009 (ip), vehicle: saline with Tween-80 108 % of control | dose: 20.0 mg/kg/injection, schedule: Q01DX009 (ip), vehicle: saline with Tween-80 99 % of control

O=[n+]1c2c(n([O-])c3ccccc31)CCCCC2
inactive: [9] 99 % of control | dose: 200.0 mg/kg/injection, schedule: Q04DX003 (ip), vehicle: saline with Tween-80 101 % of control | dose: 400.0 mg/kg/injection, schedule: Q04DX003 (ip), vehicle: saline with Tween-80 92 % of control

[Cl][Sn]1([c]2ccccc2)[O]CCNCC[O]1
inactive: dose: 25.0 mg/kg/injection, schedule: Q01DX009 (ip), vehicle: suspension in saline 97 % of control | dose: 50.0 mg/kg/injection, schedule: Q01DX009 (ip), vehicle: saline 120 % of control | [7] 109 % of control | [8] 109 % of control

c1ccc(CSC2=NCCCC2)cc1
inactive: dose: 100.0 mg/kg/injection, schedule: Q04DX002 (ip), vehicle: saline with Tween-80 98 % of control | dose: 200.0 mg/kg/injection, schedule: Q04DX002 (ip), vehicle: saline with Tween-80 105 % of control | dose: 400.0 mg/kg/injection, schedule: Q04DX002 (ip), vehicle: saline with Tween-80 100 % of control
